Where a SMILES comes first, the peptide text is derived from it. Bridges are numbered along the chain shown (N, C = ends). [ ]: non-standard residue; d: D form. The star is where a group is joined. hPhe(3,5-F2-4-CF3) = N[C@@H](CCc1cc(F)c(C(F)(F)F)c(F)c1)C(=O)O; NPrPhe(4-CF3) = CCCN[C@@H](Cc1ccc(C(F)(F)F)cc1)C(=O)O; NMeGly(cPent) = CN[C@H](C(=O)O)C1CCCC1; NMeD = CN[C@@H](CC(=O)O)C(=O)O; NMeL = CN[C@@H](CC(C)C)C(=O)O; αMeV = CC(C)[C@](C)(N)C(=O)O; Morpholide = C1CN(*)CCO1; Aze = O=C(O)[C@@H]1CCN1; Sar = CNCC(=O)O
What was measured:
[1] = target: GDP-bound KRAS wild-type protein (Homo sapiens, UniProt P01116); test: Binding to KRAS by surface plasmon resonance (SPR), dissociation constant KD
How it was run: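 Each cycle, GDP-bound biotin-Avi RAS was captured (~100–300 RU), compound concentrations were injected low to high for 75 s each at 100 µL/min, then the chip was regenerated. Buffer: HBS pH 7.4, 10 mM MgCl2, 10 µM GDP, 1 mM DTT, 4% DMSO; 30°C. KD from a 1:1 binding model.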

[2] = target: GDP-bound NRAS wild-type protein (Homo sapiens, UniProt P01111); test: Binding to NRAS by surface plasmon resonance (SPR), KD and KD ratio to KRAS
How it was run: (§1)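 SPR, 30°C: Avi-biotin RAS·GDP captured via Biotin CAPture (~100–300 RU); running buffer HBS pH 7.4, 1 mM DTT, 10 mM MgCl2, 0.01% Tween 20, 10 µM GDP, 4% DMSO. Single-cycle kinetics, 100 µL/min, 75 s injections; 1:1 model → KD.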

HRAS wild-type protein = HRAS wild-type protein (Homo sapiens, UniProt P01112); test: Binding to HRAS by surface plasmon resonance (SPR), KD and KD ratio to KRAS
How it was run: as §1

[3] = test system: human lung cancer strain NCI-H441; type: cell-based
How it was run: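 Proliferation was scored by […] measured after the reagent was added to cultures kept at 37°C in 5% carbon dioxide.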

[4] = ratio of KD for GDP-bound NRAS wild-type protein to KD for KRAS
[5] = ratio of KD for HRAS wild-type protein to KD for KRAS
[6] = Single Cycle Kinetics, 1:1 binding model
[7] = ratio of the KD value with respect to GDP-bound NRAS wild-type protein to the KD value with respect to KRAS
[8] = ratio of the KD value with respect to HRAS wild-type protein to the KD value with respect to KRAS

GDP-bound NRAS wild-type protein, sequence (P01111 whole entry): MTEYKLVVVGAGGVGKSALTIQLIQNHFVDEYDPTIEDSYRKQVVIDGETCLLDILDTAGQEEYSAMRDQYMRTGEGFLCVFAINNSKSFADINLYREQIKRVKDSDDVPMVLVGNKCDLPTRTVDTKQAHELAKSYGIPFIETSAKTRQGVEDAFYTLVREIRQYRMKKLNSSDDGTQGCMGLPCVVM
GDP-bound KRAS wild-type protein, sequence (P01116 1-188 isoform P01116-2): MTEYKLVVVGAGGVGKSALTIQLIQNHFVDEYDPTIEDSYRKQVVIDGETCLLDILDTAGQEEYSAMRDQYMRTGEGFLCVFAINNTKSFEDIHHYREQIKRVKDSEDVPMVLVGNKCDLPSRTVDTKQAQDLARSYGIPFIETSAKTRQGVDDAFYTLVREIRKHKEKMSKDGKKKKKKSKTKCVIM
HRAS wild-type protein, sequence (P01112 whole entry): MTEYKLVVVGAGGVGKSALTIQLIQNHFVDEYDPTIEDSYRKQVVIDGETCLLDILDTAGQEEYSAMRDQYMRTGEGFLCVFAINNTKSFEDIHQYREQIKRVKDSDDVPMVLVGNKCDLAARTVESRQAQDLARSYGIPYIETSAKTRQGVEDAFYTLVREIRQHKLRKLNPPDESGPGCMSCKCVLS

Compound	Kd ([1]; Single Cycle Kinetics) [nM]	NRAS /KRAS [2, 4]	HRAS /KRAS (HRAS wild-type protein; [5])	IC50 [3] [nM]	Kd [1, 6] [nM]	NRAS /KRAS [2, 7]	HRAS /KRAS (HRAS wild-type protein; [8])	Kd ([1]; 1:1 binding model) [nM]	NRAS /KRAS ([2]; ratio of KD value for GDP-bound NRAS wild-type protein to KD value for KRAS (SPR))	HRAS /KRAS (HRAS wild-type protein; ratio of KD value for HRAS wild-type protein to KD value for KRAS (SPR))
CCCN1C(=O)CN(C)C(=O)[C@@H]2CCN2C(=O)[C@H]([C@@H](C)CC)NC(=O)[C@H](CC(C)C)N(C)C(=O)C[C@@H](C(=O)N2CCOCC2)N(C)C(=O)[C@H](C2CCCC2)N(C)C(=O)[C@](C)(C(C)C)NC(=O)[C@@H]2CCCN2C(=O)[C@H](CCc2cc(F)c(C(F)(F)F)c(F)c2)NC(=O)CN(C)C(=O)[C@@H]1Cc1ccc(C(F)(F)F)cc1 [PP0773] ([NMeL]I[Aze][Sar][NPrPhe(4-CF3)][Sar][hPhe(3,5-F2-4-CF3)]P[αMeV][NMeGly(cPent)][NMeD]-Morpholide; lactam N-11)	4	B (a compound having 3 or more and less than 10 is denoted as B)	B (a compound having 3 or more and less than 10 is denoted as B)	170						
CCC[C@@H]1C[C@H]2C(=O)NC3(CCCC3)C(=O)N(C)[C@@H](C3CCCC3)C(=O)N(C)[C@H](C(=O)N(C)C)CC(=O)N(C)[C@@H](CC)C(=O)N[C@@H]([C@@H](C)CC)C(=O)N(C)CC(=O)N(C)[C@H]3C/C=C\CCN(C3=O)[C@@H](Cc3ccc(C)cc3)C(=O)N(C)CC(=O)N[C@@H](CCc3cc(F)c(C(F)(F)F)c(F)c3)C(=O)N2C1 [PP2227]				50.3	0.27	A (a compound having 10 or more and less than 20 is denoted as A)	A (a compound having 10 or more and less than 20 is denoted as A)			
CCO[C@@H]1C[C@H]2C(=O)NC3(CC(C)(C)C3)C(=O)N(C)[C@@H](C3CCCC3)C(=O)N(C)[C@H](C(=O)N(C)C)CC(=O)N(C)[C@@H](CC(C)C)C(=O)N[C@@H]([C@@H](C)CC)C(=O)N(C3CC3)CC(=O)N(C)[C@H]3C/C=C\CCN(C3=O)[C@@H](Cc3ccc(C)cc3)C(=O)N(C)CC(=O)N[C@@H](CCc3cc(F)c(C(F)(F)F)c(F)c3)C(=O)N2C1 [PP2109]				5.7	0.29	A (a compound having 10 or more and less than 20 is denoted as A)	A (a compound having 10 or more and less than 20 is denoted as A)			
CCO[C@@H]1C[C@H]2C(=O)NC3(CC(C)(C)C3)C(=O)N(C)[C@@H](C3CCCC3)C(=O)N(C)[C@H](C(=O)N(C)C)CC(=O)N(C)[C@@H]([C@H](C)OC)C(=O)N[C@@H]([C@@H](C)CC)C(=O)N3CCC[C@H]3C(=O)N(C)[C@H]3C/C=C\CCN(C3=O)[C@@H](Cc3ccc(C)cc3)C(=O)N(C)CC(=O)N[C@@H](CCc3cc(F)c(C(F)(F)F)c(F)c3)C(=O)N2C1 [PP3199]		A (a compound having 10 or more and less than 20 is denoted as A)	A (a compound having 10 or more and less than 20 is denoted as A)	49.6				0.8		
CCO[C@@H]1C[C@H]2C(=O)NC3(CCC3)C(=O)N(C)[C@@H](C3CCCC3)C(=O)N(C)[C@H](C(=O)N3CCOCC3)CC(=O)N(C)[C@@H](CC(C)C)C(=O)N[C@@H]([C@@H](C)CC)C(=O)N(C)CC(=O)N(C)[C@H]3CCCCCN(C3=O)[C@@H](Cc3ccc(F)cc3)C(=O)N(C)CC(=O)N[C@@H](CCc3ccc(C(F)(F)F)c(Cl)c3)C(=O)N2C1 [PP0968]	0.32	B (a compound having 3 or more and less than 10 is denoted as B)	B (a compound having 3 or more and less than 10 is denoted as B)	38.8						
CC[C@H](C)[C@@H]1NC(=O)[C@H](C2CCC2)N(C)C(=O)C[C@@H](C(=O)N(C)CC)N(C)C(=O)[C@H](C2CCCC2)N(C)C(=O)C2(CCC2)NC(=O)[C@@H]2C[C@H](C)CN2C(=O)[C@H](CCc2cc(F)c(C(F)(F)F)c(F)c2)NC(=O)CN(C)C(=O)[C@H](Cc2ccc(C(F)(F)F)cc2)N2CC/C=C\C[C@@H](C2=O)N(C)C(=O)CN(C)C1=O [PP2082]				7.8	0.11	AA (a compound having 20 or more is denoted as AA)	A (a compound having 10 or more and less than 20 is denoted as A)			
CCC[C@H]1C(=O)N[C@H]([C@@H](C)CC)C(=O)N(C)CC(=O)N(C)[C@H]2C/C=C\CCN(C2=O)[C@@H](Cc2ccc(C)cc2)C(=O)N(C)CC(=O)N[C@@H](CCc2cc(F)c(C(F)F)c(F)c2)C(=O)N2C[C@H](OCC)C[C@H]2C(=O)NC2(CC(C)(C)C2)C(=O)N(C)[C@@H](C(CC)CC)C(=O)N(C)[C@H](C(=O)N(C)C)CC(=O)N1C (stereo in doubt) [PP2783]		A (a compound having 10 or more and less than 20 is denoted as A)	A (a compound having 10 or more and less than 20 is denoted as A)	33.9				1.7		
CCCOC[C@H]1C(=O)N[C@@H]([C@@H](C)CC)C(=O)N(C2CC2)CC(=O)N(C)[C@H]2C/C=C\CCN(C2=O)[C@@H](Cc2ccc(C(F)(F)F)cc2)C(=O)N(C)CC(=O)N[C@@H](CCc2ccc(C(F)(F)F)c(OC)c2)C(=O)N2C[C@H](OCC)C[C@H]2C(=O)N(C)C2(CCC2)C(=O)N(C)[C@@H](C2CCCC2)C(=O)N(C)[C@H](C(=O)N(C)C)CC(=O)N1C [PP2318]				3.3	0.12	A (a compound having 10 or more and less than 20 is denoted as A)	A (a compound having 10 or more and less than 20 is denoted as A)			
CCO[C@@H]1C[C@H]2C(=O)NC3(CC(C)(C)C3)C(=O)N(C)[C@@H](C3CCCC3)C(=O)N(C)[C@H](C(=O)N(C)CC)CC(=O)N(C)[C@@H](CC(C)C)C(=O)N[C@@H]([C@@H](C)CC)C(=O)N(C)CC(=O)N(C)[C@H]3C/C=C\CCN(C3=O)[C@@H](Cc3ccc(C(F)F)cc3)C(=O)N(C)CC(=O)N[C@@H](CCc3cc(F)c(Cl)c(OC)c3)C(=O)N2C1 [PP3142]		A (a compound having 10 or more and less than 20 is denoted as A)	A (a compound having 10 or more and less than 20 is denoted as A)	39.3				0.44		
CCO[C@@H]1C[C@H]2C(=O)NC3(CC(C)(C)C3)C(=O)N(C)[C@@H](C3CCCC3)C(=O)N(C)[C@H](C(=O)N(C)CC)CC(=O)N(C)[C@@H]([C@@H](C)OC)C(=O)N[C@@H]([C@@H](C)CC)C(=O)N3CCC[C@H]3C(=O)N(C)[C@H]3C/C=C\CCN(C3=O)[C@@H](Cc3ccc(C)cc3)C(=O)N(C)CC(=O)N[C@@H](CCc3cc(F)c(C(F)(F)F)c(F)c3)C(=O)N2C1 [PP3190]		A (a compound having 10 or more and less than 20 is denoted as A)	B (a compound having 3 or more and less than 10 is denoted as B)	29.9				0.87		
CCO[C@@H]1C[C@H]2C(=O)NC3(CC(C)(C)C3)C(=O)N(C)[C@@H](C3CCCC3)C(=O)N(C)[C@H](C(=O)N(C)CC)CC(=O)N(C)[C@@H](CC(C)C)C(=O)N[C@@H]([C@@H](C)CC)C(=O)N(C)CC(=O)N(C)[C@H]3C/C=C\CCN(C3=O)[C@@H](Cc3ccc(C(F)F)cc3)C(=O)N(C)CC(=O)N[C@@H](CCc3ccc4c(c3)CCC4(F)F)C(=O)N2C1 [PP3152]		AA (a compound having 20 or more is denoted as AA)	A (a compound having 10 or more and less than 20 is denoted as A)	620				2		
CCO[C@@H]1C[C@H]2C(=O)NC3(CCC3)C(=O)N(C)[C@@H](C(CC)CC)C(=O)N(C)[C@H](C)CC(=O)N(C)[C@@H](CC(C)C)C(=O)N[C@@H]([C@@H](C)CC)C(=O)N(C)CC(=O)N(C)[C@H]3C/C=C\CCN(C3=O)[C@@H](Cc3ccc(F)cc3)C(=O)N(C)CC(=O)N[C@@H](CCc3cc(F)c(C(F)(F)F)c(F)c3)C(=O)N2C1 [PP1525]				132	1.7				A (a compound having 10 or more and less than 20 is denoted as A)	A (a compound having 10 or more and less than 20 is denoted as A)
CCO[C@@H]1C[C@H]2C(=O)NC3(CCC3)C(=O)N(C)[C@@H](C3CCCC3)C(=O)N(C)[C@H](C(=O)N(C)CC)CC(=O)N(C)[C@@H](CC(C)C)C(=O)N[C@@H]([C@@H](C)CC)C(=O)N(C)CC(=O)N(C)[C@H]3C/C=C\CCN(C3=O)[C@@H](Cc3ccc(C(F)(F)F)cc3)C(=O)N(C)CC(=O)N[C@@H](CCc3ccc(Cl)c(Cl)c3)C(=O)N2C1 [PP2845]		AA (a compound having 20 or more is denoted as AA)	A (a compound having 10 or more and less than 20 is denoted as A)	22.7				0.3		

Source: patent EP4603105A1, “PHARMACEUTICAL COMPOSITION CONTAINING CYCLIC COMPOUND HAVING SELECTIVE KRAS INHIBITORY EFFECT AGAINST HRAS AND NRAS” (CHUGAI SEIYAKU KABUSHIKI KAISHA, priority 2022, dated 2024)
